In one test the target is T1, FPR (Homo sapiens, UniProt P21462).
T1 construct: expressed in transfected cells; host or cells: RBL-2H3
T1 sequence (P21462 1-350): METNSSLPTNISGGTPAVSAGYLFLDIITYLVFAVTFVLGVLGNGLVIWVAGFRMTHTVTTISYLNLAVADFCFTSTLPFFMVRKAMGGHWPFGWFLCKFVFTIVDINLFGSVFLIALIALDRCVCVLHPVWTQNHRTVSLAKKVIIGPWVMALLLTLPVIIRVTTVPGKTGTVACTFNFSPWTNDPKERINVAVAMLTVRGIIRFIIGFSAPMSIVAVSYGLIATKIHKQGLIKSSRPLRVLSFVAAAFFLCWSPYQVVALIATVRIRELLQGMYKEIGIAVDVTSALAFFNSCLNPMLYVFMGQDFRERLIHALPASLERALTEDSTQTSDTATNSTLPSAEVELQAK
The test can be described thus: [Ca2+]i increase in FPR-expressing RBL-2H3 cells. The class given is cell-based. The settings on record: data not shown. The protocol: (§1) U937 (human histiocytic lymphoma cells), HL60 (human promyelocytic leukemia cells), Raw 264.7 (mouse macrophage), Jurkat (human acute T cell leukemia), PC12 (rat adrenal pheochromocytoma cells), 3Y1 (Rat embryonic fibroblasts), 3T3L1 (preadipocytes), and NCI-H292 (human mucoepidermoid pulmonary carcinoma cells) were obtained from the American Type Culture Collection (Rockville, Md.) and maintained as recommended. FPR- or FPRL1 expressing RBL-2H3 cells were cultured as described previously (He et al. J. Immunol. 2000. 165: 4598-4605). Cells were maintained at about 1×10^6 cells/ml under standard incubator conditions (humidified atmosphere, 95% air, 5% CO2, at 37° C.). HL60 cells were induced to differentiate into the granulocyte phenotype by adding dimethylsulfoxide (DMSO) (final concentration 1.25%, v/v) for 4 days to the culture medium, as described previously (Itoh et al. Blood. 1998. 92: 1432-1441).
(§2) The level of [Ca^2+]i was determined using Grynkiewicz's method using fura-2/AM (Grynkiewicz et al. J. Biol. Chem. 1985. 260: 3440-3550). Briefly, prepared cells were incubated with 3 μM of fura-2/AM at 37° C. for 50 min in serum-free RPMI 1640 medium under continuous stirring. 2×10^6 cells were aliquoted for each assay in Ca^2+ free Locke's solution (154 mM NaCl, 5.6 mM KCl, 1.2 mM MgCl2, 5 mM HEPES, pH 7.3, 10 mM glucose, and 0.2 mM EGTA). Fluorescence changes were measured at the dual excitation wavelength of 340 nm and 380 nm, and the calculated fluorescence ratio was translated into [Ca^2+]i.

Test [1] relates to undifferentiated HL60 cells. The experiment in a line: [Ca2+]i increase in undifferentiated HL60 cells. The class given is cell-based, human. The following applies: for [Ca^2+]i increase in undifferentiated HL60 cells: peptides 10 μM (FIG. 8). The method, then: as §1, §2
The test system of another test is human neutrophils. The test can be described thus: Superoxide generation (cytochrome c reduction) in human neutrophils. The class given is cell-based. The settings on record: for Superoxide production: 1 μM of peptide, cytochrome c reduction. The method, then:
(§3) Peripheral blood leukocyte concentrates were donated by the Ulsan Red Cross Blood Center (Ulsan, Korea). PBMCs were separated on a Histopaque-1077 gradient. After two washings with HBSS without Ca^2+ and Mg^2+, the PBMCs were suspended in 10% FBS containing RPMI and incubated for 60 min at 37° C. to let the monocytes attach to the culture dish. Cells were washed 5 times with warmed RPMI medium to remove lymphocytes, and then the attached monocytes were collected, as described previously (Bae et al. J. Leukoc. Biol. 1999. 65: 241-248). Human neutrophils were isolated according to standard procedures; i.e., dextran sedimentation, hypotonic lysis of erythrocytes, and using a medium lymphocyte separation gradient, as described previously (Seo et al. J. Immunol. 1997. 158: 1895-1901). Isolated human leukocytes were then used promptly.
We determined superoxide anion generation by measuring cytochrome c reduction using a microtiter 96 well plate ELISA reader (Bio-Tekinstruments, EL312e, Winooski, Vt.) as described previously (Bae et al. Blood. 2001. 97: 2854-2862). Human neutrophils (1×10^6 cells/100 μl of RPMI 1640 medium per well of a 96-well plate) were preincubated with 50 μM of cytochrome c at 37° C. for 1 min and then incubated with the indicated peptide concentrations. Superoxide generation was determined from change in light absorption at 550 nm over 5 minutes at 1 min intervals.

In a further test the test system is PC12. The experiment in a line: [Ca2+]i rise in PC12 cells. The class given is cell-based, rat. The following applies: PC12, 10 μM. The method, then: as §1
(§4) The level of [Ca^2+]i was determined using Grynkiewicz's method using fura-2/AM (Grynkiewicz et al. J. Biol. Chem. 1985. 260: 3440-3550). Briefly, prepared cells were incubated with 3 μM of fura-2/AM at 37° C. for 50 min in serum-free RPMI 1640 medium under continuous stirring. […] Fluorescence changes were measured at the dual excitation wavelength of 340 nm and 380 nm, and the calculated fluorescence ratio was translated into [Ca^2+]i.

In another test the test system is 3Y1. The test can be described thus: [Ca2+]i rise in 3Y1 cells. The following applies: 3Y1, 10 μM. It counts as cell-based, Rat. The protocol:
as §1, §4

A further test has as its system Monocytes. The test can be described thus: [Ca2+]i rise in monocytes. It counts as cell-based, human. The following applies: 10 μM (FIG. 5). The method, then: as §3, §4
The test system of a further test is Raw 264.7. The experiment in a line: [Ca2+]i rise in Raw 264.7 cells. The class given is cell-based, mouse. The settings on record: Raw 264.7, 10 μM (FIG. 5). The method, then:
as §1, §4

Another test deals with neutrophils. The test can be described thus: [Ca2+]i rise in neutrophils. It counts as cell-based, human. The settings on record: 10 μM (FIG. 5). The method, then: as §3, §4
The subject of the next test is NCI-H292. The experiment in a line: [Ca2+]i rise in NCI-H292 cells. The following applies: NCI-H292, 10 μM. It counts as cell-based, human. The method, then: as §1, §4
The next test relates to Jurkat cells. The test can be described thus: [Ca2+]i rise in Jurkat cells. It counts as cell-based, human. The following applies: 10 μM (FIG. 5). The method, then:
as §1, §4

A further test has as its system U937 cells. The experiment in a line: [Ca2+]i rise in U937 cells. The class given is cell-based, human. The following applies: 10 μM (FIG. 5). The method, then:
as §1, §4

A further test deals with HUVEC. The experiment in a line: [Ca2+]i rise in HUVEC. The settings on record: 10 μM. It counts as cell-based. The protocol: as §2

“Also recorded” adds a separate entry of the source. Where no end group is shown, it is not given here.

Here are results for three substances from US7622551B2, “Leukocyte stimulating peptides” (POSCO, priority 2004, dated 2009).

With MKYYKM-NH2 [Peptide P21], the “[Ca^2+]i in FPR-expressing RBL-2H3 cells / ligand for FPR” value with FPR is given as “not for FPR”. Besides, in test [1], the “[Ca^2+]i increase in undifferentiated HL60 cells” value is “did not affect”. For the same substance, in the test with human neutrophils, the “Superoxide generation (in words)” value is “stimulate superoxide generation in a concentration-dependent manner” and the Superoxide production is recorded as 12.7 ± 1.76 nmole/10^6 cells.
Regarding MKYYYM-NH2 [Peptide P24], the “[Ca^2+]i rise” value was “no response” with PC12; “no response” with 3Y1; “activated” with Monocytes; “not activated” in the test on Raw 264.7; “resulted in a [Ca^2+]i rise” in the test on neutrophils; “no response” in the test with NCI-H292. Also, the “[Ca^2+]i rise” value with Jurkat cells was “not activated”; in the test with U937 cells, “activated”; in the test on HUVEC it was “no response”. In addition, the “[Ca^2+]i in FPR-expressing RBL-2H3 cells / ligand for FPR” value in the test with FPR is recorded as “not for FPR”. Also, the “[Ca^2+]i increase in undifferentiated HL60 cells” value in [1] is “dramatically induced”. For the same substance, the “Effect of PTX on peptide-stimulated calcium signaling” value in [1] (undifferentiated HL60 cells, data not shown) is “partially inhibited”. Besides, the “Superoxide generation (in words)” value in the test with human neutrophils is “stimulate superoxide generation in a concentration-dependent manner; also recorded: most potent”. This substance also returned a Superoxide production in the test on human neutrophils of 34.2 ± 0.48 nmole/10^6 cells.
In the case of RKYHVM-NH2 [Peptide P14], in the test with FPR, the “[Ca^2+]i in FPR-expressing RBL-2H3 cells / ligand for FPR” value is on record as “not for FPR”. Further, in test [1], the “[Ca^2+]i increase in undifferentiated HL60 cells” value is recorded as “did not affect”. In addition, in the test on human neutrophils, the “Superoxide generation (in words)” value was “stimulate superoxide generation in a concentration-dependent manner” and the Superoxide production worked out at 9.3 ± 1.42 nmole/10^6 cells.
